Tests used:
KRAS G12D = KRAS G12D (Homo sapiens, UniProt P01116, G12D); assay: GDP-GTP exchange assay (bodipy-GDP/GppNHp, SOS1), KRAS G12D; type: biochemical; conditions: bodipy-loaded KRAS G12D 2.5 nM, 4 h pre-incubation; value for the most potent isomer quoted for certain compounds; read-out: G12D (KRAS G12D exchange assay IC50)
Protocol: (§1) The inhibitor potency of the exemplified compounds was determined in a fluorescence based guanine nucleotide exchange assay, which measures the exchange of bodipy-GDP (fluorescently labeled GOP) for GppNHp (Non-hydrolyzable GTP analog) to generate the active state of KRAS in the presence of SOS1 (guanine nucleotide exchange factor). Inhibitors were serially diluted in DMSO and a volume of 0.1 μL was transferred to the wells of a black low volume 384-well plate. 5 μL/well volume of bodipy-loaded KRAS G12D diluted to 2.5 nM in assay buffer (25 mM Hepes pH 7.5, 50 mM NaCl, 10 mM MgCl2 and 0.01% Brij-35) was added to the plate and pre-incubated with inhibitor for 4 h at r.t. Appropriate controls (enzyme with no inhibitor or with a G12D inhibitor) were included on the plate. The exchange was initiated by the addition of a 5 μL/well volume containing 1 mM GppNHp and 300 nM SOS1 in assay buffer. The 10 μL/well reaction concentration of the bodipy-loaded KRAS G12D, GppNHp, and SOS1 were 2.5 nM, 500 μM, and 150 nM, respectively. The reaction plates were incubated at r.t. for 2 h, a time estimated for complete GDP-GTP exchange in the absence of inhibitor. For the KRAS G12V mutant, similar guanine nucleotide exchange assays were used with 2.5 nM as final concentration for the bodipy loaded KRAS proteins and 3 h incubation after adding GppNHp-SOS1 mixture. A cyclic peptide described to selectively bind G12D mutant (Sakamoto et al., BBRC 484.3 (2017), 605-611) or internal compounds with confirmed binding were used as positive controls in the assay plates. Fluorescence intensities were measured on a PheraStar plate reader instrument (BMG Labtech) with excitation at 485 nm and emission at 520 nm.
(§2) Either GraphPad prism or Genedata Screener SmartFit was used to analyze the data. The IC50 values were derived by fitting the data to a four parameter logistic equation producing a sigmoidal dose-response curve with a variable Hill coefficient.
(§3) The symbol “†” indicates IC50≤100 nM, “††” indicates IC50>100 nM but ≤1 μM; and “†††” indicates IC50 is >1 μM but ≤5 μM, “††††” indicates IC50 is >5 μM but ≤10 μM. “NA” indicates IC50 not available.

KRAS G12V = KRAS G12V (Homo sapiens, UniProt P01116, G12V); assay: GDP-GTP exchange assay (bodipy-GDP/GppNHp, SOS1), KRAS G12V; type: biochemical; conditions: KRAS G12V mutant; value for the most potent isomer quoted for certain compounds; read-out: G12V (KRAS G12V exchange assay IC50)
Sequence of KRAS G12V (P01116 1-188 isoform P01116-2 G12V): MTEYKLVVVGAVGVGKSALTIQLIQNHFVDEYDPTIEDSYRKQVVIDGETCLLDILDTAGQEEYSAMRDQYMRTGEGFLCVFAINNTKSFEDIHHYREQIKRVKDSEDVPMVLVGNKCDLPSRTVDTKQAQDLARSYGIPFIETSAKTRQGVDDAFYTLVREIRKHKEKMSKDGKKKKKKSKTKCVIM
Protocol: as §1, §2, §3

Sequence of KRAS G12D (P01116 1-188 isoform P01116-2 G12D): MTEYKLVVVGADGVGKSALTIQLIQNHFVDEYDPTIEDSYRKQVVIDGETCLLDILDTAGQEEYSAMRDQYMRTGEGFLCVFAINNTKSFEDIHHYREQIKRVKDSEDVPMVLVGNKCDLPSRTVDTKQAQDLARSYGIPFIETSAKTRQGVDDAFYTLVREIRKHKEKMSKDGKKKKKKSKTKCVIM

Compound	IC50 (KRAS G12D)	IC50 (KRAS G12V)
Cc1nc2c(F)c(-c3cccc(Cl)c3Cl)c(CCC#N)cc2c2c1cc([C@H]1C[C@H](OC[C@H]3CCOC3)CN1C(=O)C1CC1)n2[C@H]1[C@H]2CN[C@@H]1C2 [Example 372]	≤ 100 nM	≤ 100 nM
Cc1nc2c(F)c(-c3cccc(Cl)c3Cl)c(CCC#N)cc2c2c1cc([C@H]1C[C@H](Oc3cccc(C(=O)N(C)C)c3)CN1C(=O)C1CC1)n2[C@H]1[C@H]2CN[C@@H]1C2 [Example 174]	≤ 100 nM	≤ 100 nM
Cc1nc2c(F)c(-c3cccc(Cl)c3Cl)c(CCC#N)cc2c2c1cc([C@H]1C[C@H](n3cc(CCC(=O)O)nn3)CN1C(=O)C1CC1)n2[C@H]1[C@H]2CN[C@@H]1C2 [Example 322]	≤ 100 nM	≤ 100 nM
Cc1ncc(CO[C@H]2C[C@H](c3cc4c(C)nc5c(F)c(-c6cccc(Cl)c6Cl)c(CCC#N)cc5c4n3[C@H]3[C@H]4CN[C@@H]3C4)N(C(=O)C3CC3)C2)s1 [Example 90]	≤ 100 nM	≤ 100 nM
Cc1nc2c(F)c(-c3cccc(Cl)c3Cl)c(CCC#N)cc2c2c1cc([C@H]1C[C@H](OCC3CC(F)(F)C3)CN1C(=O)C1CC1)n2[C@H]1[C@H]2CN[C@@H]1C2 [Example 445]	≤ 100 nM	≤ 100 nM
Cc1nc2c(F)c(-c3cccc(Cl)c3Cl)c(CCC#N)cc2c2c1cc([C@H]1C[C@H](CCc3nccn3C)CN1C(=O)C1CC1)n2[C@H]1[C@H]2CN[C@@H]1C2 [Example 89]	≤ 100 nM	≤ 100 nM
Cc1cc(C)n([C@H]2C[C@H](c3cc4c(C)nc5c(F)c(-c6cccc(Cl)c6Cl)c(CCC#N)cc5c4n3[C@H]3[C@H]4CN[C@@H]3C4)N(C(=O)C3CC3)C2)n1 [Example 355]	≤ 100 nM	≤ 100 nM
Cc1nc2c(F)c(-c3cccc(Cl)c3Cl)c(CCC#N)cc2c2c1cc([C@H]1C[C@H](Oc3cnn(CC(F)F)c3C)CN1C(=O)C1CC1)n2[C@H]1[C@H]2CN[C@@H]1C2 [Example 410]	≤ 100 nM	≤ 100 nM
Cc1nc2c(F)c(-c3cccc(Cl)c3Cl)c(CCC#N)cc2c2c1cc([C@H]1C[C@H](n3cc(C4(C)CCCC4)nn3)CN1C(=O)C1CC1)n2[C@H]1[C@H]2CN[C@@H]1C2 [Example 386]	≤ 100 nM	≤ 100 nM
CC(O)c1nc2c(F)c(-c3cccc(Cl)c3Cl)c(CCC#N)cc2c2c1cc([C@H]1C[C@H](OCc3ccc(F)cc3C#N)CN1C(=O)C1CC1)n2[C@H]1[C@H]2CN[C@@H]1C2 (some centres unmarked) [Example 178]	≤ 100 nM	≤ 100 nM
Cc1ccncc1O[C@H]1C[C@H](c2cc3c(C)nc4c(F)c(-c5cccc(Cl)c5Cl)c(CCC#N)cc4c3n2[C@H]2[C@H]3CN[C@@H]2C3)N(C(=O)C2CC2)C1 [Example 130]	≤ 100 nM	≤ 100 nM
Cc1nc2c(F)c(-c3cccc(Cl)c3Cl)c(CCC#N)cc2c2c1cc([C@H]1C[C@H](Oc3cccc(C(F)(F)F)c3)CN1C(=O)C1CC1)n2[C@H]1[C@H]2CN[C@@H]1C2 [Example 172]	≤ 100 nM	≤ 100 nM
COC1CN(c2ccnc(O[C@H]3C[C@H](c4cc5c(C)nc6c(F)c(-c7cccc(Cl)c7Cl)c(CCC#N)cc6c5n4[C@H]4[C@H]5CN[C@@H]4C5)N(C(=O)C4CC4)C3)c2)C1 [Example 367]	≤ 100 nM	≤ 100 nM
Cc1nc2c(F)c(-c3cccc(Cl)c3Cl)c(CCC#N)cc2c2c1cc([C@H]1C[C@H](OCc3cccnc3)CN1C(=O)C1CC1)n2[C@H]1[C@H]2CN[C@@H]1C2 [Example 95]	≤ 100 nM	≤ 100 nM
Cc1nc2c(F)c(-c3cccc(Cl)c3Cl)c(CCC#N)cc2c2c1cc([C@H]1C[C@H](OCc3cocn3)CN1C(=O)C1CC1)n2[C@H]1[C@H]2CN[C@@H]1C2 [Example 112]	≤ 100 nM	≤ 100 nM
Cc1nc2c(F)c(-c3cccc(Cl)c3Cl)c(CCC#N)cc2c2c1cc([C@H]1C[C@H](OCc3cnco3)CN1C(=O)C1CC1)n2[C@H]1[C@H]2CN[C@@H]1C2 [Example 258]	≤ 100 nM	≤ 100 nM
Cc1cccc(C(F)(F)F)c1CO[C@H]1C[C@H](c2cc3c(C)nc4c(F)c(-c5cccc(Cl)c5Cl)c(CCC#N)cc4c3n2[C@H]2[C@H]3CN[C@@H]2C3)N(C(=O)C2CC2)C1 [Example 124]	100 to 1000 nM	≤ 100 nM
Cc1cc(C(C)O[C@H]2C[C@H](c3cc4c(C(C)O)nc5c(F)c(-c6cccc(Cl)c6Cl)c(CCC#N)cc5c4n3[C@H]3[C@H]4CN[C@@H]3C4)N(C(=O)C3CC3)C2)ns1 (some centres unmarked) [Example 335]	≤ 100 nM	≤ 100 nM
COC(=O)[C@H]1C[C@H]1c1cn([C@H]2C[C@H](c3cc4c(C)nc5c(F)c(-c6cccc(Cl)c6Cl)c(CCC#N)cc5c4n3[C@H]3[C@H]4CN[C@@H]3C4)N(C(=O)C3CC3)C2)nn1 [Example 390]	≤ 100 nM	≤ 100 nM
Cc1nc2c(F)c(-c3cccc(Cl)c3Cl)c(CCC#N)cc2c2c1cc([C@H]1C[C@H](OCc3ccccc3C(F)(F)F)CN1C(=O)C1CC1)n2[C@H]1[C@H]2CN[C@@H]1C2 [Example 117]	≤ 100 nM	≤ 100 nM
Cc1ccnc(C)c1CO[C@H]1C[C@H](c2cc3c(C)nc4c(F)c(-c5cccc(Cl)c5Cl)c(CCC#N)cc4c3n2[C@H]2[C@H]3CN[C@@H]2C3)N(C(=O)C2(C)CC2)C1 [Example 140]	≤ 100 nM	≤ 100 nM
Cc1nc2c(F)c(-c3cccc(Cl)c3Cl)c(CCC#N)cc2c2c1cc([C@H]1C[C@H](OC[C@H]3C[C@H](C#N)C3)CN1C(=O)C1CC1)n2[C@H]1[C@H]2CN[C@@H]1C2 [Example 402]	≤ 100 nM	≤ 100 nM

More lines, now with the values ahead:

IC50 (KRAS G12D)	IC50 (KRAS G12V)	Compound
≤ 100 nM	≤ 100 nM	Cc1nc2c(F)c(-c3cccc(Cl)c3Cl)c(CCC#N)cc2c2c1cc([C@H]1C[C@H](OCC3(C#N)CC3)CN1C(=O)C1CC1)n2[C@H]1[C@H]2CN[C@@H]1C2 [Example 338]
100 to 1000 nM	≤ 100 nM	Cc1ccccc1C(=O)N1C[C@@H](OCc2c(F)cccc2F)C[C@@H]1c1cc2c(C)nc3c(F)c(-c4cccc(Cl)c4Cl)c(CCC#N)cc3c2n1[C@H]1[C@H]2CN[C@@H]1C2 [Example 196]
≤ 100 nM	≤ 100 nM	Cc1nc2c(F)c(-c3cccc(Cl)c3Cl)c(CCC#N)cc2c2c1cc([C@H]1C[C@H](OCc3nc4ccccc4s3)CN1C(=O)C1CC1)n2[C@H]1[C@H]2CN[C@@H]1C2 [Example 360]
≤ 100 nM	≤ 100 nM	Cc1cccc(CO[C@H]2C[C@H](c3cc4c(C)nc5c(F)c(-c6cccc(Cl)c6Cl)c(CCC#N)cc5c4n3[C@H]3[C@H]4CN[C@@H]3C4)N(C(=O)C3CC3)C2)c1 [Example 91]
≤ 100 nM	≤ 100 nM	Cc1nc2c(F)c(-c3cccc(Cl)c3Cl)c(CCC#N)cc2c2c1cc([C@H]1C[C@H](OCc3ccnn3C(F)F)CN1C(=O)C1CC1)n2[C@H]1[C@H]2CN[C@@H]1C2 [Example 313]
≤ 100 nM	≤ 100 nM	Cc1ccnc(O[C@H]2C[C@H](c3cc4c([C@@H](C)O)nc5c(F)c(-c6cccc(Cl)c6Cl)c(CCC#N)cc5c4n3[C@H]3C4CNC3C4)N(C(=O)C3CC3)C2)c1 (some centres unmarked) [Example 424]
≤ 100 nM	≤ 100 nM	Cc1nc2c(F)c(-c3cccc(Cl)c3Cl)c(CCC#N)cc2c2c1cc([C@H]1C[C@H](OCc3cn(C4CC4)nn3)CN1C(=O)C1CC1)n2[C@H]1[C@H]2CN[C@@H]1C2 [Example 235]
≤ 100 nM	≤ 100 nM	Cc1nc2c(F)c(-c3cccc(Cl)c3Cl)c(CCC#N)cc2c2c1cc([C@H]1C[C@H](Oc3cccc4c3cnn4C)CN1C(=O)C1CC1)n2[C@H]1[C@H]2CN[C@@H]1C2 [Example 133]
≤ 100 nM	≤ 100 nM	Cc1csnc1C(C)O[C@H]1C[C@H](c2cc3c(C)nc4c(F)c(-c5cccc(Cl)c5Cl)c(CCC#N)cc4c3n2[C@H]2[C@H]3CN[C@@H]2C3)N(C(=O)C2CC2)C1 (some centres unmarked) [Example 330]
≤ 100 nM	≤ 100 nM	Cc1ncccc1O[C@H]1C[C@H](c2cc3c(C)nc4c(F)c(-c5cccc(Cl)c5Cl)c(CCC#N)cc4c3n2[C@H]2[C@H]3CN[C@@H]2C3)N(C(=O)C2CC2)C1 [Example 129]
≤ 100 nM	≤ 100 nM	Cc1nc2c(F)c(-c3cccc(Cl)c3Cl)c(CCC#N)cc2c2c1cc([C@H]1C[C@H](n3cc(C4CCCO4)nn3)CN1C(=O)C1CC1)n2[C@H]1C2CNC1C2 (some centres unmarked) [Example 180]
100 to 1000 nM	≤ 100 nM	Cc1nc2c(F)c(-c3cccc(Cl)c3Cl)c(CCC#N)cc2c2c1cc([C@H]1C[C@H](OCc3c(F)cccc3F)CN1C(=O)c1ccccc1)n2[C@H]1[C@H]2CN[C@@H]1C2 [Example 195]
